Experimental data reported in US20050124618A1, “Methods of modulating angiogenesis and cancer cell proliferation” (priority 2003, published 2005).
Entries after “also recorded” stand apart in the source; their conditions may differ.

How the values were obtained:
p42/p44 MAPK = experiment: Western blot of phospho-p42/p44 MAPK in 9L cells; format: cell-based, rat; settings: 10 μM HET0016; 4 hr, 24 hr
Experimental: (§1) They were then pelleted by centrifugation at 1,000 g for 5 min at 4° C. The cells were lysed by adding RIPA buffer [20 mM HEPES (pH 7.4), 100 mM NaCl, 1% Nonidet P-40, 0.1% SDS, 1% deoxycholic acid, 10% glycerol, 1 mM EDTA, 1 mM NaVO3, 50 mM NaF, and protease inhibitors Set 1 (Calbiochem, La Jolla, Calif.)]. The plates were then scraped and the cells were collected in a 1.5-ml centrifuge tube, followed by incubation on ice for 30 min. The cell homogenates were centrifuged for 10 min at 14,000 g and 4° C.; the pellets were discarded and the protein concentrations in the supernatant determined by bicinchoninic acid (BCA) protein assay.
(§2) Typically, 20 μg of protein obtained from the cell homogenates was separated on a 14% Tris-glycine gel (Invitrogen) and transferred to a PVDF membrane (Biotrace, Bothell, Wash.). The membranes were blocked for 1 hr at room temperature with blocking buffer [0.2% I-Block reagent (Tropix, Bedford, Mass.), 0.1% Tween-20 in 1×PBS] and then incubated with the primary antibodies in blocking buffer overnight at 4° C. Phospho-p42/p44 MAPK (T202/Y204)(20G11), and phospho-SAPK/JNK (T183/Y185) (98F2) monoclonal antibodies were purchased from Upstate (Waltham, Mass.). […] Both phospho-p44/p42MAPK and phospho-SAPK/JNK were detected using 1:1000 antibody dilutions. […]

9L rat gliosarcoma cells = experiment: 9L cell proliferation assay (cell counting); format: cell-based
Experimental: Culture Conditions: 9L rat gliosarcoma cells were purchased from ATC (Gaithersburg, Md.) and were maintained in DMEM (Invitrogen) supplemented with 10% heat-inactivated fetal bovine serum (FBS), penicillin (10 IU/ml), streptomycin (10 μg/ml) and 10% non-essential amino acids (all purchased from Invitrogen). Cells were maintained at 37° C. in a humidified incubator containing 5% CO2. They were grown in medium containing 10% FBS, which was then replaced with serum-free medium (give type and source) where 9L cells grow exponentially.
Cell Proliferation Assays: Proliferation studies were performed with cultures plated at a density that ensured exponential growth for at least 5 days. Growth medium were generally replaced by serum free medium 24 hr after plating. […] The concentration of the ethanol added to the media never exceeded 0.1%. Cells were harvested by exposure to a solution of 0.05% Trypsin/EDTA and counted using a hemocytometer.

HUVECs = HUVECs proliferation assay (CellTiter96 AQueous One); format: cell-based, human
Experimental: HUVECs were seeded onto a 96-well plate at 1×10^4 cells/well. […] Organic solvent concentration never exceeded 0.1% of total culture volume. […] 20 μl of Aqueous One reagent was added to the 100 μl medium in each well. The plates were incubated for 2 hours at 37° C. in a humidified incubator. Absorbance was recorded at 490 nm using a 96-well Bio Kinetics Reader EL340 (Bio-TEK, Winooski, Vt.). The data represent changes in percent absorbance of treated cultures compared with control cells. Three different experiments were carried out, and each point was determined in triplicate.

9L gliosarcoma tumors = experiment: Ki-67 immunohistochemistry of 9L tumor sections; format: in vivo, rat; settings: chronic treatment with HET0016
Experimental: Assessment of tumor volume: The formalin fixed brains were placed in Coronal rat brain matrix, and sliced into 3-mm blocks. These blocks were then embedded in paraffin and […] thick sections were prepared. Sections prepared for H&E staining were placed onto uncoated slides. Sections for immunohistochemistry were placed onto positively charged super frosted slides. The serial sections were either stained with H&E for to assess the size of the tumor or immunohistochemically process for Ki-67 antigen to assess for the degree of proliferation.
The sections prepared for immunohistochemistry were deparaffinized by boiling the sections in a citric buffer (pH 6.0) for 10 minutes on a hot plate. The sections were cooled to room temperature, placed in a blocking buffer [2% normal serum, 1% BSA in PBS] for 1 hr, rinsed twice in a wash buffer [0.05 Tween-20 in PBS], blocked with hydrogen peroxide for 10 min and rinsed in wash buffer. The sections were then incubated for 30 min with rabbit polyclonal anti-ki67 antibody (Abcam Inc., Cambridge, Mass.; 1:200 dilution in 1.0% BSA in PBS). The sections were rinsed in wash buffer, incubated with biotinylated Goat anti-rabbit IgG (Vector Laboratories, Inc., Burlingame, Calif.; 1:500 in PBS) for 30 min, and rewashed. […]

SAPK/JNK = experiment: Western blot of phospho-SAPK/JNK in 9L cells; format: cell-based, rat; settings: 10 μM HET0016; 4 hr, 24 hr, 48 hr
Experimental: as §1, §2

## CCCCc1ccc(N=CNO)c(C)c1 [HET0016, N-hydroxy-N′-(4-butyl-2 methylphenyl) formamidine]
p42/p44 MAPK
  phosphorylation of p42/p44 MAPK: decreases the phosphorylation; also recorded: significantly reduced the phosphorylation; also recorded: even greater after 24 hr
9L rat gliosarcoma cells; 10 μM HET0016, 48 hrs
  reduction of proliferation of 9L cells: 60%
9L rat gliosarcoma cells; EGF 200 ng/ml + 10 μM HET0016, 24 hr
  effect on EGF-stimulated growth of 9L cells at 24 hr: prevented the effects of EGF on cells growth
9L rat gliosarcoma cells; EGF 200 ng/ml + 10 μM HET0016, 48 hr
  effect on EGF-stimulated growth of 9L cells at 48 hr: reduced the number of cells
9L rat gliosarcoma cells; EGF 200 ng/ml + HET0016
  effect on EGF-induced growth of 9L cells: almost abolished
9L rat gliosarcoma cells; HET0016 10 nM
  inhibition of 9L cell growth: some degree of inhibition of cell growth was apparent even though the difference from control was not significant
9L rat gliosarcoma cells; HET0016 100 μM
  cytotoxicity to 9L cells (cell detachment, dead cells): may have a direct cytotoxic effect
  effect on 9L cell number: dramatic reduction in cell number
9L rat gliosarcoma cells; HET0016 1 and 10 μM, both 24 and 48 hr
  reduction of 9L cell number: 30-40%
9L rat gliosarcoma cells; various concentrations of HET0016
  dose dependence of inhibition of 9L growth: decreased the proliferation of 9L cells in a dose-related manner; also recorded: produced a dose dependent inhibition
HUVECs; 250 ng/ml VEGF + 10 μM HET0016, 24 hours
  effect on the proliferative response of HUVECs to VEGF: abolished; also recorded: blocked the known proliferative response to VEGF; also recorded: blocks the mitogenic activity of VEGF
HUVECs; 10 μM HET0016
  effect on basal proliferation rate of HUVECs: did not alter basal proliferation rate
9L gliosarcoma tumors
  number of mitotic (Ki67-positive) cells in the 9L tumor: reduction in mitosis; also recorded: greatly reduced the number of mitotic cells
SAPK/JNK
  phosphorylation of SAPK/JNK: decreases the phosphorylation; also recorded: significantly reduced the phosphorylation; also recorded: inhibition appears to peak at 48 hr
